Laboratory results from PubChem BioAssay (NCI).
Where “and” joins values, the source holds several entries; their conditions need not be identical. Equal entries are not always repeated.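 Step 1: Grow cells in 96-well plates. Step 2: Expose to compound for 48 hours at 5 concentrations. Step 3: Interpolate endpoints linearly; if unreached, use highest concentration. GI50 marks 50% less growth. The concentration for full growth arrest is given as TGI.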

Assays:
Assay in all cases: NCI tumour cell line growth inhibition, 48 h
MALME-3M melanoma = tested on: MALME-3M melanoma
SN12C renal = tested on: SN12C renal
UACC-257 melanoma = tested on: UACC-257 melanoma
TK-10 renal = tested on: TK-10 renal
SK-MEL-28 melanoma = tested on: SK-MEL-28 melanoma
SR leukemia = tested on: SR leukemia
MOLT-4 leukemia = tested on: MOLT-4 leukemia
CCRF-CEM leukemia = tested on: CCRF-CEM leukemia
HOP-92 NSCLC = tested on: HOP-92 NSCLC
OVCAR-5 ovarian = tested on: OVCAR-5 ovarian

Compound | TGI (MALME-3M melanoma) | TGI (SN12C renal) | TGI (UACC-257 melanoma) | TGI (TK-10 renal) | TGI (SK-MEL-28 melanoma) | TGI (SR leukemia) | TGI (MOLT-4 leukemia) | TGI (CCRF-CEM leukemia) | TGI (HOP-92 NSCLC) | TGI (OVCAR-5 ovarian) | GI50 (MALME-3M melanoma) | GI50 (SN12C renal) | GI50 (UACC-257 melanoma) | GI50 (TK-10 renal) | GI50 (SK-MEL-28 melanoma) | GI50 (SR leukemia) | GI50 (MOLT-4 leukemia) | GI50 (CCRF-CEM leukemia) | GI50 (HOP-92 NSCLC) | GI50 (OVCAR-5 ovarian)
COc1ccc(C(=O)C(c2ccc(OC)cc2)C2OC(=O)C(Cl)=C2Cl)cc1 (stereo not given) | > 100 µM | > 100 µM | > 100 µM | > 100 µM | > 100 µM | > 100 µM | > 100 µM | > 100 µM | > 100 µM | > 100 µM | – | – | – | – | – | – | – | – | – | –
Clc1ccc(C2=Nn3c(nnc3-c3cc(Cl)cc(Cl)c3Cl)SC2)cc1 | 29.2 µM | > 100 µM | > 100 µM | 35.9 µM | > 100 µM | 7.34 µM | > 100 µM | 26 µM | 65 µM | > 100 µM | 10.5 µM | 75 µM | 33.2 µM | 15.9 µM | > 100 µM | 3.1 µM | 38.8 µM | 10.7 µM | 19.6 µM | 36.7 µM
CCCCCCCCCc1cc[n+](CC(=O)c2ccc([N+](=O)[O-])cc2)cc1 | 3.03 µM | 1.9 µM | 3.2 µM | 2.88 µM | 2.39 µM | 4.48 µM | 5.27 µM | 5.01 µM | 1.03 µM | 2.52 µM | 1.41 µM | 0.581 µM | 1.47 µM | 1.47 µM | 1.11 µM | 0.612 µM | 2.1 µM | 1.95 µM | 0.234 µM | 1.16 µM
CS(=O)(=O)CCNCc1ccc(-c2ccc3ncnc(Nc4ccc(OCc5cccc(F)c5)c(C(F)(F)F)c4)c3c2)o1 | 4.11 µM | 14.9 µM | 7.68 µM | 9.82 µM | 7.2 µM | 19.4 µM | 11.1 µM | 13.9 µM | 6.34 µM | 15 µM | 2.74 µM | 4.73 µM | 3.86 µM | 4.65 µM | 3.71 µM | 6.34 µM | 3.81 µM | 4.8 µM | 0.847 µM | 5.29 µM
O=c1c(O)cccc2cc(O)c(O)c(O)c12 | > 100 µM | > 100 µM | > 100 µM | > 100 µM | > 100 µM | > 100 µM | > 100 µM | > 100 µM | > 100 µM | > 100 µM | 4.99 µM | 57.4 µM | 5.84 µM | 55 µM | 32.3 µM | 3.76 µM | 16.9 µM | 7.55 µM | 19.8 µM | 41.8 µM
Cc1cc(O)c(C2=NN(c3ccc(S(N)(=O)=O)cc3)C(c3ccc(N(C)C)cc3)C2)c(C)c1Cl (stereo not given) | 32.7 µM | 25 µM | 63.1 µM | 42.4 µM | 35.6 µM | 41 µM | 43.2 µM | 43.6 µM | 23.6 µM | 38.1 µM | 14.8 µM | 9.62 µM | 26.3 µM | 22.1 µM | 19.4 µM | 14.1 µM | 12.7 µM | 15.1 µM | 10.3 µM | 19.4 µM
CCn1cc(-c2ccnc3[nH]ccc23)c(-c2cccc(NC(=O)Nc3ccc(OCc4ccccc4)cc3)c2)n1 | > 25 µM | > 25 µM | > 25 µM | > 25 µM | > 25 µM | > 25 µM | > 25 µM | > 25 µM | > 25 µM | > 25 µM | > 22.6 µM | > 25 µM | > 24.1 µM | 24.8 µM | 18.1 µM | 7.25 µM | 6.85 µM | 11.5 µM | > 25 µM | 22.1 µM
CN1CCN(c2ccc(Nc3nc(N)c(C(=O)c4ccc5c(c4)OCCO5)s3)cc2)CC1 | 8.34 µM | > 25 µM | 12.6 µM | 10.1 µM | 10.5 µM | 12.7 µM | 10 µM | 23.9 µM | 3.5 µM | 8.48 µM | 2.72 µM | 3.33 µM | 3.97 µM | 3.14 µM | 4.6 µM | 2.02 µM | 1.89 µM | 4.66 µM | 0.204 µM | 2.86 µM
Cc1nc(CN2CCCCC2)c(O)c(=O)[nH]1 | > 100 µM | > 100 µM | > 100 µM | > 100 µM | > 100 µM | > 100 µM | > 100 µM | > 100 µM | > 100 µM | > 100 µM | – | – | – | – | – | – | – | – | – | –
Nc1ncnc2c1c(-c1cccc(OCc3ccccc3)c1)cn2C1CC(CN2CCC2)C1 (stereo not given) | 1.96 µM and 3.04 µM | 18 µM and > 10 µM | 2.1 µM and 2.41 µM | 7.74 µM and > 10 µM | 2.78 µM and 3.52 µM | 6.08 µM and 4.18 µM | 8.59 µM and > 10 µM | 7.99 µM and > 10 µM | 0.837 µM and 3.82 µM | 14.9 µM and > 10 µM | 0.433 µM and 1.33 µM | 4.59 µM and 5.75 µM | 0.559 µM and 1.13 µM | 2.02 µM and 2.85 µM | 1.33 µM and 1.63 µM | 2.22 µM and 1.69 µM | 2.82 µM and 2.56 µM | 2.58 µM and 2.97 µM | 0.0457 µM and 0.266 µM | 0.844 µM and 2.48 µM
O=[N+]([O-])/C=C/c1cc2ccccc2[nH]1 | 59.8 µM | 37.2 µM | 29.6 µM | 32.2 µM | 44 µM | 26.8 µM | 44.2 µM | 9.61 µM | 43.5 µM | 37.1 µM | – | – | – | – | – | – | – | – | – | –
